# In patent publication US11178871B2, “Herbicidal pyrimidine compounds” (BASF SE, priority 2016, dated 2021):
# Legend:
# Format in all cases: in vivo
# Amaranthus retroflexus = test: greenhouse test, post-emergence treatment, AMARE
# Procedure, shortened: (§1)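 Post-emergence greenhouse herbicide test: plants at 3–15 cm sprayed with aqueous formulation of compound, then evaluated on a 0–100 damage scale after 2–4 weeks.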
# Matricaria inodora = test: greenhouse test, post-emergence treatment, MATIN; conditions: 2000 g/ha
# Excerpt: (§2) The culture containers used were plastic flowerpots containing loamy sand with approximately 3.0% of humus as the substrate. The seeds of the test plants were sown separately for each species.
# (§3) For the post-emergence treatment, the test plants were first grown to a height of 3 to 15 cm, depending on the plant habit, and only then treated with the active ingredients which had been suspended or emulsified in water. For this purpose, the test plants were either sown directly and grown in the same containers, or they were first grown separately as seedlings and transplanted into the test containers a few days prior to treatment.
# (§4) Depending on the species, the plants were kept at 10-25° C. or 20-35° C., respectively.
# (§5) The test period extended over 2 to 4 weeks. During this time, the plants were tended, and their response to the individual treatments was evaluated.
# (§6) Evaluation was carried out using a scale from 0 to 100. 100 means no emergence of the plants, or complete destruction of at least the aerial moieties, and 0 means no damage, or normal course of growth. A good herbicidal activity is given at values of at least 70 and a very good herbicidal activity is given at values of at least 85.
# (§7) The plants used in the greenhouse experiments were of the following species: […]
# Echinocloa crus-galli [1] = test: greenhouse test, post-emergence treatment, ECHCG
# Procedure, shortened: as §1
# Apera spica-venti [2] = test: greenhouse test, post-emergence treatment, APESV
# Excerpt: as §2, §3, §4, §5, §6, §7
# Alopecurus myosuroides = test: greenhouse test, post-emergence treatment, ALOMY
# Procedure, shortened: as §1
# Polygonum convolvulus = test: greenhouse test, post-emergence treatment, POLCO
# Excerpt: as §2, §3, §4, §5, §6, §7
# Poa annua = test: greenhouse test, pre-emergence treatment, POAAN; conditions: 2000 g/ha
# Excerpt: as §2
# For the pre-emergence treatment, the active ingredients, which had been suspended or emulsified in water, were applied directly after sowing by means of finely distributing nozzles. The containers were irrigated gently to promote germination and growth and subsequently covered with transparent plastic hoods until the plants had rooted. This cover caused uniform germination of the test plants, unless this had been impaired by the active ingredients.
# as §4, §5, §6, §7
# Echinocloa crus-galli [3] = test: greenhouse test, pre-emergence treatment, ECHCG; conditions: 2000 g/ha
# Procedure, shortened: (§8)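 Damage scored visually on a 0-100 scale (100 = no emergence or complete destruction of aerial parts, 0 = normal growth) after 2 to 4 weeks. Treatment was applied pre-emergence as an aqueous suspension or emulsion immediately after sowing in loamy sand (approx. 3.0% humus).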
# Avena fatua = test: greenhouse test, post-emergence treatment, AVEFA; conditions: 2000 g/ha
# Procedure, shortened: as §1
# Apera spica-venti [4] = test: greenhouse test, pre-emergence treatment, APESV
# Procedure, shortened: as §8
# Abutilon theophrasti = test: greenhouse test, post-emergence treatment, ABUTH; conditions: 2000 g/ha
# Excerpt: as §2, §3, §4, §5, §6, §7
# Setaria viridis = test: greenhouse test, post-emergence treatment, SETVI
# Procedure, shortened: as §1
# [5] = 500 g/ha, printed under post-emergence, method not restated
# [6] = 1000 g/ha, printed under post-emergence, method not restated
smiles,measurement,setting,value
Clc1ccccc1-c1cnc(C2CC2)nc1-c1cccs1 [Ex. 29],herbicidal activity,Amaranthus retroflexus; 2000 g/ha,very good (a very good herbicidal activity is given at values of at least 85)
same,herbicidal activity,Matricaria inodora,very good (a very good herbicidal activity is given at values of at least 85)
Cc1nc(C)c(-c2nc(C3CC3)ncc2-c2c(F)cccc2Cl)o1 [Ex. 309],herbicidal activity,Amaranthus retroflexus; 1000 g/ha,very good (a very good herbicidal activity is given at values of at least 85)
same,herbicidal activity,"Echinocloa crus-galli [1]; post-emergence, 1000 g/ha",very good (a very good herbicidal activity is given at values of at least 85)
same,herbicidal activity,Apera spica-venti [2]; 1000 g/ha,very good (a very good herbicidal activity is given at values of at least 85)
same,herbicidal activity,"Alopecurus myosuroides; post-emergence, 1000 g/ha",very good (a very good herbicidal activity is given at values of at least 85)
Cc1ccc(-c2nc(C3CC3)ncc2-c2ccccc2I)o1 [Ex. 108],herbicidal activity,Polygonum convolvulus; 500 g/ha,very good (a very good herbicidal activity is given at values of at least 85)
same,herbicidal activity,"Alopecurus myosuroides; post-emergence, 500 g/ha",good (A good herbicidal activity is given at values of at least 70)
Clc1ccccc1-c1cnc(C2CC2)nc1-c1ccncn1 [Ex. 225],herbicidal activity,Poa annua,very good (a very good herbicidal activity is given at values of at least 85)
same,herbicidal activity,Echinocloa crus-galli [3],very good (a very good herbicidal activity is given at values of at least 85)
same,herbicidal activity,"Echinocloa crus-galli [1]; post-emergence, 2000 g/ha",very good (a very good herbicidal activity is given at values of at least 85)
same,herbicidal activity,Avena fatua,very good (a very good herbicidal activity is given at values of at least 85)
same,herbicidal activity,Apera spica-venti [4]; 2000 g/ha,very good (a very good herbicidal activity is given at values of at least 85)
same,herbicidal activity,"Alopecurus myosuroides; post-emergence, 2000 g/ha",very good (a very good herbicidal activity is given at values of at least 85)
Clc1ccccc1-c1cnc(C2CC2)nc1-c1ncco1 [Ex. 315],herbicidal activity,Amaranthus retroflexus; 2000 g/ha,very good (a very good herbicidal activity is given at values of at least 85)
same,herbicidal activity,"Echinocloa crus-galli [1]; 2000 g/ha, printed under post-emergence, method not restated",very good (a very good herbicidal activity is given at values of at least 85)
same,herbicidal activity,"Echinocloa crus-galli [1]; post-emergence, 2000 g/ha",very good (a very good herbicidal activity is given at values of at least 85)
same,herbicidal activity,Apera spica-venti [2]; 2000 g/ha,very good (a very good herbicidal activity is given at values of at least 85)
same,herbicidal activity,"Alopecurus myosuroides; post-emergence, 2000 g/ha",very good (a very good herbicidal activity is given at values of at least 85)
CCc1nc(CC)c(-c2nc(C3CC3)ncc2-c2ccccc2Br)o1 [Ex. 311],herbicidal activity,Amaranthus retroflexus; 500 g/ha,very good (a very good herbicidal activity is given at values of at least 85)
same,herbicidal activity,Polygonum convolvulus; 500 g/ha,very good (a very good herbicidal activity is given at values of at least 85)
same,herbicidal activity,Echinocloa crus-galli [1]; [5],very good (a very good herbicidal activity is given at values of at least 85)
same,herbicidal activity,Apera spica-venti [2]; 500 g/ha,very good (a very good herbicidal activity is given at values of at least 85)
same,herbicidal activity,Alopecurus myosuroides; [5],very good (a very good herbicidal activity is given at values of at least 85)
same,herbicidal activity,"Alopecurus myosuroides; post-emergence, 500 g/ha",very good (a very good herbicidal activity is given at values of at least 85)
COC(=O)C(OC(C)=O)c1nc(C2CC2)ncc1-c1ccccc1Cl (stereo not drawn) [Ex. 222],herbicidal activity,Amaranthus retroflexus; 2000 g/ha,very good (a very good herbicidal activity is given at values of at least 85)
same,herbicidal activity,Abutilon theophrasti,very good (a very good herbicidal activity is given at values of at least 85)
same,herbicidal activity,Matricaria inodora,very good (a very good herbicidal activity is given at values of at least 85)
OCc1nc(C2CC2)ncc1-c1ccccc1Br [Ex. 13],herbicidal activity,Polygonum convolvulus; 250 g/ha,very good (a very good herbicidal activity is given at values of at least 85)
same,herbicidal activity,"Echinocloa crus-galli [1]; post-emergence, 250 g/ha",very good (a very good herbicidal activity is given at values of at least 85)
same,herbicidal activity,Apera spica-venti [4]; 250 g/ha,very good (a very good herbicidal activity is given at values of at least 85)
same,herbicidal activity,"Alopecurus myosuroides; post-emergence, 250 g/ha",very good (a very good herbicidal activity is given at values of at least 85)
CCCc1nc(C)c(-c2nc(C3CC3)ncc2-c2ccccc2Cl)o1 [Ex. 313],herbicidal activity,Setaria viridis; 1000 g/ha,very good (a very good herbicidal activity is given at values of at least 85)
same,herbicidal activity,Echinocloa crus-galli [1]; [6],very good (a very good herbicidal activity is given at values of at least 85)
same,herbicidal activity,"Echinocloa crus-galli [1]; post-emergence, 1000 g/ha",very good (a very good herbicidal activity is given at values of at least 85)
same,herbicidal activity,Apera spica-venti [2]; 1000 g/ha,very good (a very good herbicidal activity is given at values of at least 85)
same,herbicidal activity,"Alopecurus myosuroides; post-emergence, 1000 g/ha",very good (a very good herbicidal activity is given at values of at least 85)
COC(=O)C(O)(CO)c1nc(C2CC2)ncc1-c1ccccc1Cl (stereo not drawn) [Ex. 230],herbicidal activity,Matricaria inodora,good (A good herbicidal activity is given at values of at least 70)
OC(Cc1nc(C2CC2)ncc1-c1ccccc1Cl)c1c(Cl)ccc(Cl)c1Cl (stereo not drawn) [Ex. 231],herbicidal activity,"Echinocloa crus-galli [1]; post-emergence, 2000 g/ha",very good (a very good herbicidal activity is given at values of at least 85)
same,herbicidal activity,Matricaria inodora,good (A good herbicidal activity is given at values of at least 70)
Cc1nc(O)oc1-c1nc(C2CC2)ncc1-c1ccccc1Br [Ex. 312],herbicidal activity,Polygonum convolvulus; 500 g/ha,very good (a very good herbicidal activity is given at values of at least 85)
same,herbicidal activity,Echinocloa crus-galli [1]; [5],very good (a very good herbicidal activity is given at values of at least 85)
same,herbicidal activity,"Echinocloa crus-galli [1]; post-emergence, 500 g/ha",very good (a very good herbicidal activity is given at values of at least 85)
same,herbicidal activity,Apera spica-venti [2]; 500 g/ha,very good (a very good herbicidal activity is given at values of at least 85)
same,herbicidal activity,Alopecurus myosuroides; [5],very good (a very good herbicidal activity is given at values of at least 85)
same,herbicidal activity,"Alopecurus myosuroides; post-emergence, 500 g/ha",very good (a very good herbicidal activity is given at values of at least 85)
Cc1cnc(-c2nc(C3CC3)ncc2-c2ccccc2Cl)o1 [Ex. 314],herbicidal activity,Amaranthus retroflexus; 1000 g/ha,very good (a very good herbicidal activity is given at values of at least 85)
same,herbicidal activity,Setaria viridis; 1000 g/ha,very good (a very good herbicidal activity is given at values of at least 85)
same,herbicidal activity,Echinocloa crus-galli [1]; [6],very good (a very good herbicidal activity is given at values of at least 85)
same,herbicidal activity,"Echinocloa crus-galli [1]; post-emergence, 1000 g/ha",very good (a very good herbicidal activity is given at values of at least 85)
same,herbicidal activity,Apera spica-venti [2]; 1000 g/ha,very good (a very good herbicidal activity is given at values of at least 85)
CC(C)=CC(O)Cc1nc(C2CC2)ncc1-c1ccccc1Cl (stereo not drawn) [Ex. 223],herbicidal activity,Amaranthus retroflexus; 2000 g/ha,very good (a very good herbicidal activity is given at values of at least 85)
same,herbicidal activity,Abutilon theophrasti,very good (a very good herbicidal activity is given at values of at least 85)
same,herbicidal activity,Poa annua,very good (a very good herbicidal activity is given at values of at least 85)
same,herbicidal activity,Echinocloa crus-galli [3],very good (a very good herbicidal activity is given at values of at least 85)
same,herbicidal activity,"Echinocloa crus-galli [1]; post-emergence, 2000 g/ha",very good (a very good herbicidal activity is given at values of at least 85)
same,herbicidal activity,Apera spica-venti [4]; 2000 g/ha,very good (a very good herbicidal activity is given at values of at least 85)
Fc1cccc(Cl)c1-c1cnc(C2CC2)nc1-c1ccoc1 [Ex. 41],herbicidal activity,Matricaria inodora,very good (a very good herbicidal activity is given at values of at least 85)
same,herbicidal activity,"Alopecurus myosuroides; post-emergence, 2000 g/ha",very good (a very good herbicidal activity is given at values of at least 85)
CSc1ncc(-c2nc(C3CC3)ncc2-c2ccccc2Cl)cn1 [Ex. 248],herbicidal activity,Poa annua,very good (a very good herbicidal activity is given at values of at least 85)
same,herbicidal activity,Echinocloa crus-galli [3],very good (a very good herbicidal activity is given at values of at least 85)
same,herbicidal activity,Setaria viridis; 2000 g/ha,very good (a very good herbicidal activity is given at values of at least 85)
same,herbicidal activity,"Echinocloa crus-galli [1]; post-emergence, 2000 g/ha",very good (a very good herbicidal activity is given at values of at least 85)
same,herbicidal activity,Apera spica-venti [4]; 2000 g/ha,very good (a very good herbicidal activity is given at values of at least 85)
same,herbicidal activity,"Alopecurus myosuroides; post-emergence, 2000 g/ha",very good (a very good herbicidal activity is given at values of at least 85)
Clc1ccc(Cl)c(/C=C/c2nc(C3CC3)ncc2-c2ccccc2Cl)n1 [Ex. 257],herbicidal activity,Matricaria inodora,good (A good herbicidal activity is given at values of at least 70)
CC1OC1c1nc(C2CC2)ncc1-c1ccccc1Br (stereo not drawn) [Ex. 213],herbicidal activity,Poa annua,good (A good herbicidal activity is given at values of at least 70)
same,herbicidal activity,Echinocloa crus-galli [3],good (A good herbicidal activity is given at values of at least 70)
same,herbicidal activity,"Echinocloa crus-galli [1]; post-emergence, 2000 g/ha",very good (a very good herbicidal activity is given at values of at least 85)
same,herbicidal activity,Avena fatua,very good (a very good herbicidal activity is given at values of at least 85)
same,herbicidal activity,Apera spica-venti [4]; 2000 g/ha,good (A good herbicidal activity is given at values of at least 70)
same,herbicidal activity,"Alopecurus myosuroides; post-emergence, 2000 g/ha",very good (a very good herbicidal activity is given at values of at least 85)
